Counter-ions that a name gives are not always drawn. Like-named read-outs stand apart in the source and are kept apart here. Marks after values point to notes of the source that are not given here.
Tests used:
[1] = tested on: rtL180M/M204V/N236T HBV variant; assay: Antiviral activity in HepG2 cells transiently transfected with rtL180M/M204V/N236T HBV variant; assay type: cell-based, HBV genotype B; conditions: EC50 fold change relative to mean wild-type EC50; mean ± SD
Description: (§1) In this example, the antiviral activity of Compound 1 was determined using HepG2 liver cells transiently transfected with plasmids expression replication-competent HBV DNA and quantitation of intracellular encapsidated HBV DNA. The antiviral activity of Compound 1 was measured against nucleoside inhibitor sensitive, wild-type HBV, as well as against HBV variants resistant to nucleoside analogs that contain defined amino acid changes in the coding sequence of the reverse transcriptase protein: rtL180M/M204V, rtN236T, rtA181V, rtA181V/N236T, and rtL180M/M204V/N236T.
(§2) Plasmid DNA constructs containing a 1.1×HBV genome under the control of a CMV promoter were previously cloned from serum of an HBV infected patient prior to LMV treatment (Genbank AY220698, Fudan University, China; SEQ ID NO:1, see Table 1) and after development of resistance to LMV (Genbank AY220697, Fudan University, China; SEQ ID NO:2, see Table 1) (Zhang J M et al. 2005. J Med Virol 77: 203-208). Genotyping analysis confirmed that both isolates belong to genotype B HBV, and that the isolate collected after the development of resistance to LMV contained two amino acid changes within the polymerase gene (L180M/M204V). The HBV variant was named rtL180M/M204V to indicate that the amino acid changes were present in the reverse transcriptase (rt) protein. Two additional plasmids were generated by introducing coding sequence changes resulting in the amino acid changes N236T and A181V in the HBV polymerase, respectively. […]
(§3) HepG2 cells were seeded in collagen coated 96-well plates (BIOCOAT™; Fisher Scientific, Catalog#354407) at a density of 20,000 cells/well and allowed to attach overnight at 37° C. and 5% CO2. […] Cells were incubated with compounds for three days, after which intracellular HBV DNA was extracted from cells and levels of secreted Gaussian luciferase was determined from the medium using the Gaussia Flash Luciferase assay kit (THERMO SCIENTIFIC™, Fisher Scientific, Catalog#16158). […]

[2] = tested on: rtN236T HBV variant; assay: Antiviral activity in HepG2 cells transiently transfected with rtN236T HBV variant; assay type: cell-based, HBV genotype B; conditions: EC50 fold change relative to mean wild-type EC50; mean ± SD
Description: as §1
as §2, with “respectively. The nucleotide changes were introduced into the wild type genotype B plasmid by site directed mutagenesis according to manufacturer recommendation (Agilent Technologies; Santa Clara, Calif.; Catalog#200519) using the following primers and their corresponding reverse complement sequence (nucleotide change underlined): 5′-CTTTGGGTATACATTTAACCCCTCACAAAAC-3′ (rtN236T; SEQ ID NO:3), 5′-GTCCGTTTCTCTTGGTTCAGTTTACTAGTG-3′ (rtA181V; SEQ ID NO:4). In two additional plasmid constructs, the rtN236T amino acid change was also added into the rtA181V and rtL180M/M204V plasmids to generate the rtA181V/N236T double mutant and rtL180M/M204V/N236T triple mutant HBV variants, respectively.” for “respectively.”
as §3

[3] = tested on: rtA181V HBV variant; assay: Antiviral activity in HepG2 cells transiently transfected with rtA181V HBV variant; assay type: cell-based, HBV genotype B; conditions: for Fold Change rtA181V: EC50 fold change relative to mean wild-type EC50, mean ± SD
Description: as §1, §2, §3

[4] = tested on: rtL180M/M204V HBV variant; assay: Antiviral activity in HepG2 cells transiently transfected with rtL180M/M204V HBV variant; assay type: cell-based, HBV genotype B; conditions: for Fold Change rtL180M/M204V: EC50 fold change relative to mean wild-type EC50, mean ± SD
Description: as §1
as §2, with “respectively. The nucleotide changes were introduced into the wild type genotype B plasmid by site directed mutagenesis according to manufacturer recommendation (Agilent Technologies; Santa Clara, Calif.; Catalog#200519) using the following primers and their corresponding reverse complement sequence (nucleotide change underlined): 5′-CTTTGGGTATACATTTAACCCCTCACAAAAC-3′ (rtN236T; SEQ ID NO:3), 5′-GTCCGTTTCTCTTGGTTCAGTTTACTAGTG-3′ (rtA181V; SEQ ID NO:4). In two additional plasmid constructs, the rtN236T amino acid change was also added into the rtA181V and rtL180M/M204V plasmids to generate the rtA181V/N236T double mutant and rtL180M/M204V/N236T triple mutant HBV variants, respectively.” for “respectively.”
as §3

[5] = tested on: wild type HBV; assay: Antiviral activity in HepG2 cells transiently transfected with wild-type HBV, intracellular encapsidated HBV DNA; assay type: cell-based, HBV genotype B; conditions: Hepatitis B virus, 72 h, HepG2 transient transfection, 3 days, mean ± SD, at least three studies, read-out: WT EC50
Description: as §1
as §2, with “respectively. The nucleotide changes were introduced into the wild type genotype B plasmid by site directed mutagenesis according to manufacturer recommendation (Agilent Technologies; Santa Clara, Calif.; Catalog#200519) using the following primers and their corresponding reverse complement sequence (nucleotide change underlined): 5′-CTTTGGGTATACATTTAACCCCTCACAAAAC-3′ (rtN236T; SEQ ID NO:3), 5′-GTCCGTTTCTCTTGGTTCAGTTTACTAGTG-3′ (rtA181V; SEQ ID NO:4). In two additional plasmid constructs, the rtN236T amino acid change was also added into the rtA181V and rtL180M/M204V plasmids to generate the rtA181V/N236T double mutant and rtL180M/M204V/N236T triple mutant HBV variants, respectively.” for “respectively.”
as §3

[6] = tested on: rtA181V/N236T HBV variant; assay: Antiviral activity in HepG2 cells transiently transfected with rtA181V/N236T HBV variant; assay type: cell-based, HBV genotype B; conditions: EC50 fold change relative to mean wild-type EC50; mean ± SD
Description: In this example, the antiviral activity of Compound 1 was determined using HepG2 liver cells transiently transfected with plasmids expression replication-competent HBV DNA and quantitation of intracellular encapsidated HBV DNA. The antiviral activity of Compound 1 was measured against nucleoside inhibitor sensitive, wild-type HBV, as well as against HBV variants resistant to nucleoside analogs that contain defined amino acid changes in the coding sequence of the reverse transcriptase protein: rtL180M/M204V, rtN236T, rtA181V, rtA181V/N236T, and rtL180M/M204V/N236T. […]
as §3

[7] = Cell viability of primary human hepatocytes (CellTiter-Glo, intracellular ATP); assay type: cell-based; conditions: human, cryopreserved primary human hepatocytes
Description: (§4) Cryopreserved primary human hepatocytes from individual donors (primary hepatocyte IDs: HuM4038, HuM4055A, and HuM4059) were purchased from Triangle Research Labs (TRL; Research Triangle Park, N.C.). Cells were thawed using hepatocyte thawing medium (TRL, Catalog#MCHT50) according to manufacturers' recommendations. After centrifugation, cells were resuspended in supplemented hepatocyte plating medium (TRL, Catalog#MP250). Cells were plated in collagen Type I coated 96-well plates (Corning; Corning, N.Y.; Catalog#356407) at a density of 40,000 cells per well and maintained in humidified incubators at 37° C. and 5% CO2 overnight prior to addition of test compounds.
(§5) For each donor, three 96-well plates were set up to evaluate the effect of increasing concentrations of Compound 1 either alone or in combination with nucleoside analogs on hepatocyte cell viability. On each plate, cells were incubated with Compound 1 alone as duplicates, or Compound 1 in the presence of LMV, TFV, or ETV as triplicates. The effects of nucleoside analogs alone on hepatocyte cell viability were also determined in triplicates for each donor. Compound 1 was half-log serially diluted in DMSO (Sigma, Catalog #D2650) and added to primary human hepatocytes either alone or in combination with LMV (30 and 300 μM), TFV (30 μM), or ETV (30 μM). Single and combined drugs were added to primary human hepatocytes at a final DMSO (Sigma D2650) concentration of 0.5% across all concentrations. Cells were incubated with compounds for three days, after which medium was removed and fresh medium containing compounds was added and incubated for another three days. As a no compound control, primary human hepatocytes were treated with 0.5% DMSO, and these values were then used to define the 0% inhibition level. Background signal was determined as the mean value from wells containing only culture medium. Cell viability was monitored by using CellTiter-Glo cell viability reagent according to the manufacturer protocol (Promega; Madison, Wis.; G7573). Chemiluminescence signal proportional to the amount of cellular ATP was measured by using the Victor X4 plate reader (Perkin Elmer; Waltham, Mass.). The mean background signal from the medium only wells was subtracted from all other samples, and percent inhibition was calculated using equation E1 (as in Example 1): % inhibition=(DMSOave−Xi)/DMSOave×100% (E1):
(§6) where DMSOave is the mean signal calculated from the wells that were treated with 0.5% DMSO control (0% inhibition control) and X, is the signal measured from the individual wells. CC50 values were determined from the % inhibition data obtained at different compound concentrations by non-linear fitting using Graphpad Prism software and equation E3, in cases were % inhibition values exceeded 50% at the highest concentration tested. Y=Ymin+(Ymax−Yin)/(1+10^(LogCC50−X)×HillSlope) (E3):
(§7) where Y represents percent inhibition values and X represents the logarithm of compound concentrations.

[8] = tested on: HBV DNA replication in HepG2.2.15 cells; assay: 6-day HBV antiviral assay in HepG2.2.15 cells, qPCR of HBV DNA in supernatant, MacSynergy II; assay type: cell-based
Description: The anti-HBV activity of combinations of Compound 2 and Compound 3 with the nucleos(t)ide analogues ETV or TFV was assessed in a 6-day HBV antiviral assay using qPCR for the detection of HBV DNA in the cell culture supernatant as a read-out. The combination effect was analyzed using Mac Synergy II software. The anti-HBV activity of ETV and TFV when tested as single agents in HepG2.2.15 cells as well (Table 14).
During the antiviral testing, HepG2.2.15 cells were cultured in RPMI1640 medium and the FBS was reduced to 2%. Cells were plated at a density of 50.000 cells per well into a 96-well plate.
One day after seeding of the HepG2.2.15 cells, the supernatant was removed and 200 μL medium with test compounds, diluted in a checkerboard fashion, was added to the cells. […] HBV DNA was detected by quantitative real time PCR (qPCR). HBV DNA was quantified by a real-time PCR assay using a LightCycler480 Probes Master kit (Roche) with primers 5′-[sequence]-3′ (sense) and 5′-[sequence]-3′ (antisense, SEQ ID NO: 7). […]
The percentage inhibition values obtained for each combination of compound concentration was calculated as the average of 3 to 5 replicate plates of the same combination per experiment. To robustly identify outliers, the distance from the average of the other 4 replicates was calculated for every data point. […]

[9] = tested on: primary human hepatocytes; assay: Cell viability of primary human hepatocytes (CellTiter-Glo, intracellular ATP); assay type: cell-based; conditions: 6 days; for cell viability at single concentrations: 30 or 300 μM LMV, 30 μM TFV, 30 μM ETV, three donors
Description: as §4, §5, §6, §7

[10] = donor HuM4038, first HuM4038 column of Table 3, 6 days, read-out: HuM4038 CC50
[11] = donor HuM4038, second HuM4038 column of Table 3, 6 days, read-out: HuM4038 CC50
[12] = donor HuM4055A, 6 days, read-out: HuM4055A CC50
[13] = donor HuM4059, 6 days, read-out: HuM4059 CC50

Row | Compound | Fold Change rtL180M/M204V/N236T [1] | Fold Change rtN236T [2] | Fold Change rtA181V [3] | Fold Change rtL180M/M204V [4] | EC50 [5] [µM] | Fold Change rtA181V/N236T [6] | CC50 at 6 days [7, 10] [µM] | CC50 at 6 days [7, 11] [µM] | CC50 at 6 days [7, 12] [µM] | CC50 at 6 days [7, 13] [µM] | cell viability at single concentrations [9] | further results
1 | O=C(Nc1cc(F)c(F)c(F)c1)c1ccc(F)c(S(=O)(=O)N2CCC(O)CC2)c1 [Compound 1, 4-fluoro-3-((4-hydroxypiperidin-1-yl)sulfonyl)-N-(3,4,5,-trifluorophenyl)benzamide] | 1.4 ± 0.5^ns | 0.85 ± 0.40^ns | 0.82 ± 0.19^ns | 1.3 ± 0.6^ns | 0.31 ± 0.1 | 0.85 ± 0.26^ns | 16 | 26 | 19 | 82 |  | CC50 at 6 days ([7]; Table 4, alone, donor HuM4038, read-out: Cmpd (I) CC50): 26 µM; CC50 at 6 days ([7]; Table 4, alone, donor HuM4055A, read-out: Cmpd (I) CC50): 19 µM; CC50 at 6 days ([7]; Table 4, alone, donor HuM4059, read-out: Cmpd (I) CC50): 83 µM; CC50 at 6 days ([7]; Table 5, alone, donor HuM4038, read-out: Cmpd (I) CC50): 16 µM; CC50 at 6 days ([7]; Table 5, alone, donor HuM4055A, read-out: Cmpd (I) CC50): 19 µM; CC50 at 6 days ([7]; Table 5, alone, donor HuM4059, read-out: Cmpd (I) CC50): 83 µM; CC50 at 6 days ([7]; Table 6, alone, donor HuM4038, read-out: Cmpd (I) CC50): 16 µM; CC50 at 6 days ([7]; Table 6, alone, donor HuM4055A, read-out: Cmpd (I) CC50): 19 µM; CC50 at 6 days ([7]; Table 6, alone, donor HuM4059, read-out: Cmpd (I) CC50): 83 µM; CC50 at 6 days ([7]; range over three donors (HuM4038, HuM4055A, HuM4059), 6 days, read-out: CC50 values, range): 16 to 82 µM
2 | C=C1[C@H](CO)[C@@H](O)C[C@@H]1n1cnc2c(=O)[nH]c(N)nc21 [ETV, entecavir] |  | 0.67 ± 0.22^ns |  |  | 0.0014 ± 0.0004 |  | > 30 | > 30 | > 30 | > 30 | No reduction of cell viability | EC50 ([8]; Hepatitis B virus, HepG2.2.15, read-out: Median EC50): 0.07 nM
3 | Nc1ccn([C@@H]2CS[C@H](CO)O2)c(=O)n1 [LMV, Lamivudine] | >190 | 1.0 ± 0.5^ns |  | >190 | 0.53 |  | > 30 | > 300 | > 300 | > 300 | No reduction of cell viability | 
4 | CC(C)OC(=O)OCOP(=O)(CO[C@H](C)Cn1cnc2c(N)ncnc21)OCOC(=O)OC(C)C [TDF, tenofovir disoproxil fumarate] | 2.9 ± 1.5^b | 2.2 ± 1.0^b | 1.4 ± 0.05^ns | 1.1 ± 0.3^ns | 0.032 | 2.8 ± 1.4^b |  |  |  |  |  | EC50 ([3]; Hepatitis B virus, HepG2, read-out: mean EC50 against rtA181V variant): 0.043 µM; EC50 ([4]; Hepatitis B virus, HepG2, read-out: mean EC50 against rtL180M/M204V variant): 0.034 µM
5 | C[C@H](Cn1cnc2c(N)ncnc21)OCP(=O)(O)O [TFV, tenofovir] |  |  |  |  |  |  |  |  |  |  | No reduction of cell viability | EC50 ([8]; single agents in HepG2.2.15 cells, read-out: Median EC50): 15 nM; CC50 ([9]; donor HuM4038, first HuM4038 column of Table 3, read-out: HuM4038 CC50): > 30 µM; CC50 ([9]; donor HuM4038, second HuM4038 column of Table 3, read-out: HuM4038 CC50): > 30 µM; CC50 ([9]; donor HuM4055A, read-out: HuM4055A CC50): > 30 µM; CC50 ([9]; donor HuM4059, read-out: HuM4059 CC50): > 30 µM
